Source: US9540314B2, “N-cycloalkyl-N-[(cycloalkenylphenyl)methylene]-(thio) carboxamide derivatives” (BAYER INTELLECTUAL PROPERTY GMBH, priority 2012, dated 2017)

Columns and labels:
Venturia inaequalis = test: In vivo preventive test on Venturia inaequalis (apples); details: 100 ppm, evaluated 10 days after inoculation
Method: To produce a suitable preparation of active compound, 1 part by weight of active compound is mixed with the stated amounts of solvent and emulsifier, and the concentrate is diluted with water to the desired concentration.
To test for preventive activity, young plants are sprayed with the preparation of active compound at the stated rate of application. After the spray coating has dried on, the plants are inoculated with an aqueous conidia suspension of the causal agent of apple scab (Venturia inaequalis) and then remain for 1 day in an incubation cabinet at approximately 20° C. and a relative atmospheric humidity of 100%.
The plants are then placed in a greenhouse at approximately 21° C. and a relative atmospheric humidity of approximately 90%.
The test is evaluated 10 days after the inoculation. 0% means an efficacy which corresponds to that of the untreated control, while an efficacy of 100% means that no disease is observed.
Under these conditions, excellent (at least 95%) protection is observed at a dose of 100 ppm of active ingredient with the following compound from table D: […]

Septoria tritici = test: In vivo preventive test on Septoria tritici (wheat); details: 500 ppm of active ingredient; wheat plants, preventive spray; grading 24 days after contamination
Method: The active ingredients tested are prepared by homogenization in a mixture of acetone/tween/DMSO, and then diluted with water to obtain the desired active material concentration.
Wheat plants (“Scipion” variety), sown in starter cups on a 50/50 peat soil pozzolana substrate and grown at 22° C., are treated at the 1 leaf stage (10 cm height) by spraying with the active ingredient prepared as described above. Plants, used as controls, are treated with the mixture of acetone/tween/DMSO/water not containing the active material.
After 24 hours, the plants are contaminated by spraying the leaves with an aqueous suspension of cryopreserved Septoria tritici spores (500 000 spores per mL). The contaminated wheat plants are incubated for 72 hours at 18° C. and at 100% relative humidity, and then for 21 days at 90% relative humidity.
Grading (% of efficacy) is carried out 24 days after the contamination, in comparison with the control plants.
Under these conditions, good (at least 70%) to total protection is observed at a dose of 500 ppm of active ingredient with the following compounds from table J: […]

Puccinia recondita = test: In vivo preventive test on Puccinia recondita (brown rust on wheat); details: 500 ppm of active ingredient; wheat plants, preventive spray; grading 12 days after contamination
Procedure, shortened: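 Wheat ("Scipion") at the 1-leaf stage was sprayed with compound in acetone/tween/DMSO/water, then inoculated 24 h later with Puccinia recondita spores (100 000 spores per mL). Plants were held 24 h at 20° C and 100% RH, then 10 days at 20° C and 70-80% RH. Efficacy (%) was graded 12 days post-inoculation against solvent-treated controls.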

Cc1nn(C)c(F)c1C(=O)N(C1CC1)C(C)c1ccccc1C1=CCCC1 (racemic) [I.1]
Efficacy (Venturia inaequalis): 98% | Efficacy (Septoria tritici): 97% | Efficacy (Puccinia recondita): 81%
